The record followed here is patent publication US10016438B2, “Bicyclic heterocycles as FGFR4 inhibitors” (Incyte Corporation, priority 2015, dated 2018).

A word on the IC50: it is the concentration that gives 50% inhibition.

For one experiment, the target named is FGFR2 (Homo sapiens (Human), UniProt P21802). The experiment in a line: FGFR Enzymatic Assay (FRET peptide phosphorylation), FGFR2. To be noted: read-out: FGFR2 IC50; pre-incubated for 4 hours.
The target of a further experiment is FGFR4 (Homo sapiens (Human), UniProt P22455). The experiment in a line: FGFR Enzymatic Assay (FRET peptide phosphorylation), FGFR4. To be noted: for FGFR1/FGFR4 / FGFR2/FGFR4 / FGFR3/FGFR4: IC50 ratio showing FGFR4 selectivity.
FGFR4, sequence (P22455 22-802): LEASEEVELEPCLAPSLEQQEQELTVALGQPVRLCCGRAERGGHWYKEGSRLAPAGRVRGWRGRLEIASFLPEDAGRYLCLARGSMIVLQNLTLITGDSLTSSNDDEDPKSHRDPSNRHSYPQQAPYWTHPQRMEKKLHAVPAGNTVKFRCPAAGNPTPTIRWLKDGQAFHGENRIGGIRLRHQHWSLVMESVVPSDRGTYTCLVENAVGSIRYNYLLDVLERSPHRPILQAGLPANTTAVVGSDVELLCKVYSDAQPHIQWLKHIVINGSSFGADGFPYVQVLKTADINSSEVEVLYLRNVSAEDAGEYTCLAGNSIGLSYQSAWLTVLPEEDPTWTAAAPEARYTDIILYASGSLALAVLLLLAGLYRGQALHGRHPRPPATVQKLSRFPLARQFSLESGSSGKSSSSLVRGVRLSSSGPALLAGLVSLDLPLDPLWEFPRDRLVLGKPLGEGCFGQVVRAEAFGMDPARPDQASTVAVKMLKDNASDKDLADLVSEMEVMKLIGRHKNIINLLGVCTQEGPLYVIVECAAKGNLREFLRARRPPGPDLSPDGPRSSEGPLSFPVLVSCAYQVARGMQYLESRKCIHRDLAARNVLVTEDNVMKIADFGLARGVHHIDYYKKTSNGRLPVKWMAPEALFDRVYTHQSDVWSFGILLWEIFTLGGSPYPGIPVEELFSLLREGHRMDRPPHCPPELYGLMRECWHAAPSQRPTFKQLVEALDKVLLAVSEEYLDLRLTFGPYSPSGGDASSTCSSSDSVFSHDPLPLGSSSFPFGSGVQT
The target in a further experiment is FGFR1 (Homo sapiens (Human), UniProt P11362). The experiment in a line: FGFR Enzymatic Assay (FRET peptide phosphorylation), FGFR1. To be noted: read-out: FGFR1 IC50; pre-incubated for 4 hours.
FGFR1, sequence (P11362 22-822): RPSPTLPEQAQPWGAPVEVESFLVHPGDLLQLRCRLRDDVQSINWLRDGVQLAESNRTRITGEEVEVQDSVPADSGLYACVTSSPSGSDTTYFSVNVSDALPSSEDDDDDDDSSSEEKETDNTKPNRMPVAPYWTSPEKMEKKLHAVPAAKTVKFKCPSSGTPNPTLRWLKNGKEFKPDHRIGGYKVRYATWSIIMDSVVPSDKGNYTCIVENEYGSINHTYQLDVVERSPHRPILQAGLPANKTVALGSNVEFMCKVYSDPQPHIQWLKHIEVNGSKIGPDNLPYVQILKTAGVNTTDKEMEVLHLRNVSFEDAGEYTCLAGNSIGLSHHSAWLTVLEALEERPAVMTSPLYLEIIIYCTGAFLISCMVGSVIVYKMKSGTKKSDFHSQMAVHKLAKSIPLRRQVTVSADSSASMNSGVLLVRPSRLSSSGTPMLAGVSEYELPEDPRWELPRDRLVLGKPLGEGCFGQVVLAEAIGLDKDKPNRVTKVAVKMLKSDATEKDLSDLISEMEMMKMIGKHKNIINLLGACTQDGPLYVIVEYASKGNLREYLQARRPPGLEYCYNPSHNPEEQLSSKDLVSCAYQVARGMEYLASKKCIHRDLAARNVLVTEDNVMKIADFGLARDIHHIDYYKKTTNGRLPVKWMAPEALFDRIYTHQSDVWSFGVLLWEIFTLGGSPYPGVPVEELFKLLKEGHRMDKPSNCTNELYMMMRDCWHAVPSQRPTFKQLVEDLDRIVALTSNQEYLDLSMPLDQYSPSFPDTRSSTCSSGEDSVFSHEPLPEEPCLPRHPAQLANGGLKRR
For the next experiment, the target named is FGFR3 (Homo sapiens (Human), UniProt P22607). The experiment in a line: FGFR Enzymatic Assay (FRET peptide phosphorylation), FGFR3. As to conditions: read-out: FGFR3 IC50; pre-incubated for 4 hours.
FGFR3, sequence (P22607 23-806): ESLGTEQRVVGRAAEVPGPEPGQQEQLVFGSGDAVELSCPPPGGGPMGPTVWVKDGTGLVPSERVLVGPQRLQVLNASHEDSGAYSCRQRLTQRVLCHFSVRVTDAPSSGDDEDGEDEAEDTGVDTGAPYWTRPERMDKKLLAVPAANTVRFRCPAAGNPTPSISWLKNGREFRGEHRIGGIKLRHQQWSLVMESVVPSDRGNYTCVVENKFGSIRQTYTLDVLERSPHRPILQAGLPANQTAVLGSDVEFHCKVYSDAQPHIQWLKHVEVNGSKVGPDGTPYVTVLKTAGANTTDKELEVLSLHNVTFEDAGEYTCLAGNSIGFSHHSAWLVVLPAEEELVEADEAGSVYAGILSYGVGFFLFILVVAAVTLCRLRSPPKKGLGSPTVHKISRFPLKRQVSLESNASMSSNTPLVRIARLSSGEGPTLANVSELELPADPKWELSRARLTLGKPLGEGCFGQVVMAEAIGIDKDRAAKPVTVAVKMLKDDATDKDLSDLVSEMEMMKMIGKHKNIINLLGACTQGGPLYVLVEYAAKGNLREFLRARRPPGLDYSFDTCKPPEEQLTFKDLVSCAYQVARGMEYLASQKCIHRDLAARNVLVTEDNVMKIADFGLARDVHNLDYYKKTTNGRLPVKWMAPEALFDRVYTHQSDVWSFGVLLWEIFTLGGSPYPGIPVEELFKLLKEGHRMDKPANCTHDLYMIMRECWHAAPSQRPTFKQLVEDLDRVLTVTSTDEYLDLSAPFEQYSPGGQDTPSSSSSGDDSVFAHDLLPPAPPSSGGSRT
[1] abbreviates: pre-incubated for 5 to 10 minutes.

FGFR2, sequence (P21802 22-821): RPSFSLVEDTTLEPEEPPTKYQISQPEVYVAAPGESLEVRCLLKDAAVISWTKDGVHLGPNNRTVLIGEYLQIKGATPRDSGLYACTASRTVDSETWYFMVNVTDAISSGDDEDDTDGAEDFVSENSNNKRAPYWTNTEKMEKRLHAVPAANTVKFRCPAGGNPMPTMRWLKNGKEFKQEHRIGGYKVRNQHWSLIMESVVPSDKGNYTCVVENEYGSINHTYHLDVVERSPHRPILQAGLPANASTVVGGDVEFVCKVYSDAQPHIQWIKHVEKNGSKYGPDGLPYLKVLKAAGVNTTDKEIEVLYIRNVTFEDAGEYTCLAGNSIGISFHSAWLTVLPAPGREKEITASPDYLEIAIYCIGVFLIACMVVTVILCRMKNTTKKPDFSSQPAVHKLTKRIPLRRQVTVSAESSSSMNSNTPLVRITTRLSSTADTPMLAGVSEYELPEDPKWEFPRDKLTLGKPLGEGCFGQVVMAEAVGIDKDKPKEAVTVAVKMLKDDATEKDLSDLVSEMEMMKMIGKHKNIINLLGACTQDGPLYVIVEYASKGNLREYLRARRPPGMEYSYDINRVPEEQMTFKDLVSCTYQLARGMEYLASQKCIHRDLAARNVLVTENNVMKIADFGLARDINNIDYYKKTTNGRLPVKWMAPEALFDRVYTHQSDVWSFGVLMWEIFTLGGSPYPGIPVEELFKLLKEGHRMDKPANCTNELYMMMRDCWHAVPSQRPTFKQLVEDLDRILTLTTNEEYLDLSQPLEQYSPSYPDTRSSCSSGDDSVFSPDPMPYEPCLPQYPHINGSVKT
From the text for FGFR1: (§1) The enzymes were purchased from Millipore or Invitrogen.
(§2) GraphPad prism3 was used to analyze the data. The IC50 values were derived by fitting the data to the equation for a sigmoidal dose-response with a variable slope. Y=Bottom+(Top−Bottom)/(1+10^((Log IC50−X)*HillSlope)) where X is the logarithm of concentration and Y is the response.
From the text for FGFR2: as §1, §2
From the text for FGFR3: as §1, §2
From the text for FGFR4: as §1, §2

Turning to `C=CC(=O)Nc1cnn(CC(=O)NC)c1-c1cc2c(cn1)CN(c1c(F)c(OC)cc(OC)c1F)C(=O)C21CC1` [Example 20, N-(5-(2′-(2,6-difluoro-3,5-dimethoxyphenyl)-3′-oxo-2′,3′-dihydro-1′H-spiro[cyclopropane-1,4′-[2,7]naphthyridine]-6′-yl)-1-(2-(methylamino)-2-oxoethyl)-1H-pyrazol-4-yl)acrylamide], on FGFR2, the IC50 was more than 200 nM. At FGFR4 (pre-incubated for 4 hours), the FGFR1/FGFR4 was more than 50, the FGFR2/FGFR4 was more than 100 and the FGFR3/FGFR4 is given as more than 100. The IC50 at FGFR1 is more than 200 nM. Moreover, on FGFR3, the IC50 was more than 200 nM.
As to `C=CC(=O)Nc1cnn(C[C@@H]2CCCO2)c1-c1cc2c(cn1)CN(c1c(F)c(OC)cc(OC)c1F)C(=O)C21CC1` [Example 31, (S)-N-(5-(2′-(2,6-difluoro-3,5-dimethoxyphenyl)-3′-oxo-2′,3′-dihydro-1′H-spiro[cyclopropane-1,4′-[2,7]naphthyridine]-6′-yl)-1-((tetrahydrofuran-2-yl)methyl)-1H-pyrazol-4-yl)acrylamide], the IC50 at FGFR2 is more than 200 nM; at FGFR4 (read-out: FGFR4 IC50, pre-incubated for 4 hours), less than 10 nM; at FGFR1 it was more than 200 nM; at FGFR3 it was more than 200 nM. The FGFR1/FGFR4 at FGFR4 (pre-incubated for 4 hours) is more than 100. For the same molecule, the FGFR2/FGFR4 on FGFR4 (pre-incubated for 4 hours) is reported as more than 100. In addition, the FGFR3/FGFR4 at FGFR4 (pre-incubated for 4 hours) is more than 100.
As to `C=CC(=O)Nc1cnn(CCO)c1-c1cc2c(cn1)CN(c1c(F)c(OC)cc(OC)c1F)C(=O)C21CC1` [Example 17, N-(5-(2′-(2,6-difluoro-3,5-dimethoxyphenyl)-3′-oxo-2′,3′-dihydro-1′H-spiro[cyclopropane-1,4′-[2,7]naphthyridine]-6′-yl)-1-(2-hydroxyethyl)-1H-pyrazol-4-yl)acrylamide], on FGFR4 (pre-incubated for 4 hours), the FGFR1/FGFR4 was more than 100, the FGFR2/FGFR4 is listed as more than 100 and the FGFR3/FGFR4 is more than 100.
For the molecule `C=CC(=O)Nc1ccc(C#N)c(-c2cc3c(cn2)CN(c2c(F)c(OC)cc(OC)c2F)C(=O)C32CC2)c1` [Example 5, N-(4-cyano-3-(2′-(2,6-difluoro-3,5-dimethoxyphenyl)-3′-oxo-2′,3′-dihydro-1′H-spiro[cyclopropane-1,4′-[2,7]naphthyridine]-6′-yl)phenyl)acrylamide], on FGFR4 (setting [1]), the FGFR1/FGFR4 is given as more than 100, the FGFR2/FGFR4 is given as more than 100 and the FGFR3/FGFR4 is on record as more than 100. Moreover, on FGFR4 (pre-incubated for 4 hours), the FGFR1/FGFR4 is more than 100, the FGFR2/FGFR4 is reported as more than 100 and the FGFR3/FGFR4 is recorded as more than 100.
In the case of `C=CC(=O)Nc1cn(CCOC(F)(F)F)nc1-c1cc2c(cn1)CN(c1c(F)c(OC)cc(OC)c1F)C(=O)C21CC1` [Example 33, N-(3-(2′-(2,6-difluoro-3,5-dimethoxyphenyl)-3′-oxo-2′,3′-dihydro-1′H-spiro[cyclopropane-1,4′-[2,7]naphthyridine]-6′-yl)-1-(2-(trifluoromethoxy)ethyl)-1H-pyrazol-4-yl)acrylamide], on FGFR4 (pre-incubated for 4 hours), the FGFR1/FGFR4 is on record as more than 100, the FGFR2/FGFR4 is more than 100 and the FGFR3/FGFR4 is more than 100.
For `C=CC(=O)Nc1cnn(CC2CCOCC2)c1-c1cc2c(cn1)CN(c1c(F)c(OC)cc(OC)c1F)C(=O)C21CC1` [Example 24, N-(5-(2′-(2,6-difluoro-3,5-dimethoxyphenyl)-3′-oxo-2′,3′-dihydro-1′H-spiro[cyclopropane-1,4′-[2,7]naphthyridine]-6′-yl)-1-((tetrahydro-2H-pyran-4-yl)methyl)-1H-pyrazol-4-yl)acrylamide], at FGFR4 (pre-incubated for 4 hours), the FGFR1/FGFR4 is given as more than 100, the FGFR2/FGFR4 was more than 100 and the FGFR3/FGFR4 is listed as more than 100.
On to `C=CC(=O)Nc1cnn(C[C@H]2CCOC2)c1-c1cc2c(cn1)CN(c1c(F)c(OC)cc(OC)c1F)C(=O)C21CC1` [Example 29, (R)-N-(5-(2′-(2,6-difluoro-3,5-dimethoxyphenyl)-3′-oxo-2′,3′-dihydro-1′H-spiro[cyclopropane-1,4′-[2,7]naphthyridine]-6′-yl)-1-((tetrahydrofuran-3-yl)methyl)-1H-pyrazol-4-yl)acrylamide], for which, at FGFR4 (pre-incubated for 4 hours), the FGFR1/FGFR4 is on record as more than 100, the FGFR2/FGFR4 is recorded as more than 100 and the FGFR3/FGFR4 is given as more than 100.
`C=CC(=O)Nc1cnn(Cc2cccnc2)c1-c1cc2c(cn1)CN(c1c(F)c(OC)cc(OC)c1F)C(=O)C21CC1` [Example 22, N-(5-(2′-(2,6-difluoro-3,5-dimethoxyphenyl)-3′-oxo-2′,3′-dihydro-1′H-spiro[cyclopropane-1,4′-[2,7]naphthyridine]-6′-yl)-1-(pyridin-3-ylmethyl)-1H-pyrazol-4-yl)acrylamide]: on FGFR4 (pre-incubated for 4 hours), the FGFR1/FGFR4 is recorded as more than 100, the FGFR2/FGFR4 is given as more than 100 and the FGFR3/FGFR4 is listed as more than 100.
Regarding `C=CC(=O)Nc1cc(-c2cc3c(cn2)CN(c2c(F)c(OC)cc(OC)c2F)C(=O)C32CC2)c(C)cc1F` [Example 6, N-(5-(2′-(2,6-difluoro-3,5-dimethoxyphenyl)-3′-oxo-2′,3′-dihydro-1′H-spiro[cyclopropane-1,4′-[2,7]naphthyridine]-6′-yl)-2-fluoro-4-methylphenyl)acrylamide], on FGFR4 (setting [1]), the FGFR1/FGFR4 is on record as more than 100, the FGFR2/FGFR4 is more than 100 and the FGFR3/FGFR4 is reported as more than 100. In addition, on FGFR4 (pre-incubated for 4 hours), the FGFR1/FGFR4 is reported as more than 100, the FGFR2/FGFR4 was more than 100 and the FGFR3/FGFR4 was more than 100.
Regarding `C=CC(=O)Nc1cnn(CCOC)c1-c1cc2c(cn1)CN(c1c(F)c(OC)cc(OC)c1F)C(=O)C21CC1` [Example 15, N-(5-(2′-(2,6-difluoro-3,5-dimethoxyphenyl)-3′-oxo-2′,3′-dihydro-1′H-spiro[cyclopropane-1,4′-[2,7]naphthyridine]-6′-yl)-1-(2-methoxyethyl)-1H-pyrazol-4-yl)acrylamide], at FGFR4 (pre-incubated for 4 hours), the FGFR1/FGFR4 is reported as more than 100, the FGFR2/FGFR4 is recorded as more than 100 and the FGFR3/FGFR4 was more than 100.
Turning to `C=CC(=O)Nc1cnn(Cc2ccnn2C)c1-c1cc2c(cn1)CN(c1c(F)c(OC)cc(OC)c1F)C(=O)C21CC1` [Example 26, N-(5-(2′-(2,6-difluoro-3,5-dimethoxyphenyl)-3′-oxo-2′,3′-dihydro-1′H-spiro[cyclopropane-1,4′-[2,7]naphthyridine]-6′-yl)-1-((1-methyl-1H-pyrazol-5-yl)methyl)-1H-pyrazol-4-yl)acrylamide], on FGFR4 (pre-incubated for 4 hours), the FGFR1/FGFR4 is more than 100, the FGFR2/FGFR4 is more than 50 and the FGFR3/FGFR4 was more than 100.
Turning to `C=CC(=O)Nc1cnn(Cc2ccncc2)c1-c1cc2c(cn1)CN(c1c(F)c(OC)cc(OC)c1F)C(=O)C21CC1` [Example 21, N-(5-(2′-(2,6-difluoro-3,5-dimethoxyphenyl)-3′-oxo-2′,3′-dihydro-1′H-spiro[cyclopropane-1,4′-[2,7]naphthyridine]-6′-yl)-1-(pyridin-4-ylmethyl)-1H-pyrazol-4-yl)acrylamide], on FGFR4 (pre-incubated for 4 hours), the FGFR1/FGFR4 is more than 100, the FGFR2/FGFR4 was more than 50 and the FGFR3/FGFR4 is reported as more than 100.
Regarding `C=CC(=O)Nc1cnn(CCOCC)c1-c1cc2c(cn1)CN(c1c(F)c(OC)cc(OC)c1F)C(=O)C21CC1` [Example 16, N-(5-(2′-(2,6-difluoro-3,5-dimethoxyphenyl)-3′-oxo-2′,3′-dihydro-1′H-spiro[cyclopropane-1,4′-[2,7]naphthyridine]-6′-yl)-1-(2-ethoxyethyl)-1H-pyrazol-4-yl)acrylamide], at FGFR4 (pre-incubated for 4 hours), the FGFR1/FGFR4 is more than 100, the FGFR2/FGFR4 is more than 100 and the FGFR3/FGFR4 is listed as more than 100.
As to `C=CC(=O)Nc1cnn(Cc2ncn(C)n2)c1-c1cc2c(cn1)CN(c1c(F)c(OC)cc(OC)c1F)C(=O)C21CC1` [Example 23, N-(5-(2′-(2,6-difluoro-3,5-dimethoxyphenyl)-3′-oxo-2′,3′-dihydro-1′H-spiro[cyclopropane-1,4′-[2,7]naphthyridine]-6′-yl)-1-((1-methyl-1H-1,2,4-triazol-3-yl)methyl)-1H-pyrazol-4-yl)acrylamide], on FGFR4 (pre-incubated for 4 hours), the FGFR1/FGFR4 is recorded as more than 100, the FGFR2/FGFR4 was more than 100 and the FGFR3/FGFR4 was more than 100.
